Consider 14 compounds from patent US5594135A, “Tricyclic DNA gyrase inhibitors” (Hoffmann-La Roche Inc., priority 1994, dated 1997).

Converted amounts (≈) assume the structure as drawn. Structures can show the parent of a compound that is named as a salt. Bounds are passed on as bounds.

One test relates to S. aureus 25923. Nature of the test: Antibacterial activity in vitro (agar dilution). Type of test: cell-based. To be noted: Staphylococcus aureus, agar dilution (MuellerHinton agar), inoculum 10^4 CFU/spot, read-out: minimum inhibitory concentration (MIC).
For another test, the system named is S. pyogenes 15. In words: Antibacterial activity in vitro (agar dilution). Type of test: cell-based. To be noted: Streptococcus pyogenes, agar dilution (MuellerHinton agar), inoculum 10^4 CFU/spot, read-out: minimum inhibitory concentration (MIC).
In the next test the test system is S. faecalis 6. In words: Antibacterial activity in vitro (agar dilution). To be noted: Enterococcus faecalis, agar dilution (MuellerHinton agar), inoculum 10^4 CFU/spot, read-out: minimum inhibitory concentration (MIC). Type of test: cell-based. (In general: Agar dilution tests growth on a series of plates holding different concentrations.)
Another test has as its system S. aureus Smith. In words: Antibacterial activity in vitro (agar dilution). The test is classed as cell-based. To be noted: Staphylococcus aureus, agar dilution (MuellerHinton agar), inoculum 10^4 CFU/spot, read-out: minimum inhibitory concentration (MIC).
Another test addresses T1, DNA gyrase (Escherichia coli, UniProt P0AES4+P0AES6).
T1 construct: supercoiling of relaxed pUC18
Nature of the test: Inhibition of DNA gyrase activity (DNA gyrase supercoiling assay, relaxed pUC18 plasmid as substrate). Type of test: biochemical, E. coli H560. The method, then:
A. Inhibition of DNA gyrase activity
The inhibition of DNA gyrase activity was measured using a DNA gyrase supercoiling assay according to R. Otter & N. Cozzarelli: Methods in Enzymology, Vol. 100, pp 171-180 (1983). DNA gyrase was isolated from E. coli H560, and relaxed pUC18 plasmid was used as substrate. The activities as regards inhibition of DNA gyrase activity, expressed as maximum non-effective concentration of the test compound (MNC in μg/ml) are compiled in the following Table 1: […]

Another test deals with P. aeruginosa 799/61. In words: Antibacterial activity in vitro (agar dilution). Type of test: cell-based. To be noted: Pseudomonas aeruginosa, agar dilution (MuellerHinton agar), inoculum 10^4 CFU/spot, read-out: minimum inhibitory concentration (MIC).
The test system of the next test is E. coli B. Nature of the test: Antibacterial activity in vitro (agar dilution). To be noted: Escherichia coli, agar dilution (MuellerHinton agar), inoculum 10^4 CFU/spot, read-out: minimum inhibitory concentration (MIC). Type of test: cell-based.
The test system of another test is S. epidermidis 16-2. Nature of the test: Antibacterial activity in vitro (agar dilution). The test is classed as cell-based. As to conditions: Staphylococcus epidermidis, 162, agar dilution (MuellerHinton agar), inoculum 10^4 CFU/spot, read-out: minimum inhibitory concentration (MIC).

T1 sequence (P0AES4 whole entry, one chain of several): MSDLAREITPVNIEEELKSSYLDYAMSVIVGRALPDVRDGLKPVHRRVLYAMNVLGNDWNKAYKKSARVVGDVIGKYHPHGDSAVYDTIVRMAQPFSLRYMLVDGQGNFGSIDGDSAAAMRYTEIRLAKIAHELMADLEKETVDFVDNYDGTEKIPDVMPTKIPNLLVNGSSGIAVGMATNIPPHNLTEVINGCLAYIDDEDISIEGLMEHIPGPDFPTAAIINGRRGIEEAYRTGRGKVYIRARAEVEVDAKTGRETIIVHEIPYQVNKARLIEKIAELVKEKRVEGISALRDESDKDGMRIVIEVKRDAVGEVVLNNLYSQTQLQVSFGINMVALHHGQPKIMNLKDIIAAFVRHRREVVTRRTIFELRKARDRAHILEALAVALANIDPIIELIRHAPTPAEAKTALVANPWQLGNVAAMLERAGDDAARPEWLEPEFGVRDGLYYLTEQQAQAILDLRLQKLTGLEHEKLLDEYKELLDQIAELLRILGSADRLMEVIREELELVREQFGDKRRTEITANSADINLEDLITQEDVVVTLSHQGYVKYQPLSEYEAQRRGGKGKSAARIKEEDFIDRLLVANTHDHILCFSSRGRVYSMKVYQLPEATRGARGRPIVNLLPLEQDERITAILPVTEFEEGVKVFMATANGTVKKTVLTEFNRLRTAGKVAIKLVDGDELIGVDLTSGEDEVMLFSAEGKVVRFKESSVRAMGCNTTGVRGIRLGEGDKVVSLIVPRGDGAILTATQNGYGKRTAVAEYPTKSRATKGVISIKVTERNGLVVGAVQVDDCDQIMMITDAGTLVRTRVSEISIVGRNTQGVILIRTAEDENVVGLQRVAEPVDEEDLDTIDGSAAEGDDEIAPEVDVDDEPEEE
From the text for E. coli B: A. Antibacterial activity in vitro
(§1) Agar dilution (MuellerHinton agar), Inoculum: 10^4 CFU/spot
From the text for P. aeruginosa 799/61: A. Antibacterial activity in vitro
as §1
From the text for S. aureus 25923: A. Antibacterial activity in vitro
as §1
From the text for S. aureus Smith: A. Antibacterial activity in vitro
as §1
From the text for S. epidermidis 16-2: A. Antibacterial activity in vitro
as §1

As to `COC(=O)[C@@H]1CSCc2c(O)cc(OC)c(C)c2C(=O)O[C@H](COC(C)=O)CCC(=S)N1` [Example 11, (4R,9S)-9-acetoxymethyl-15-hydroxy-13-methoxy-12-methyl-11-oxo-6-thioxo-3,4,5,6,7,8,9,11-octahydro-1H-10,2,5-benzoxathiaazacyclotridecine-4-carboxylic acid methyl ester], the MIC with S. aureus 25923 was 0.5 µg/mL (≈ 1.03 µM); in the test with S. pyogenes 15, 2 µg/mL (≈ 4.12 µM); in the test with S. faecalis 6, 2 µg/mL (≈ 4.12 µM); with S. aureus Smith, 0.5 µg/mL (≈ 1.03 µM); with P. aeruginosa 799/61, 8 µg/mL (≈ 16.5 µM); in the test with E. coli B, greater than 64 µg/mL. For the same compound, the MIC in the test on S. epidermidis 16-2 came to 0.12 µg/mL (≈ 0.247 µM). The “maximum non-effective concentration of the test compound (MNC)” value (from here on “maximum non-effective concentration”) at DNA gyrase came out at 0.02 µg/mL.

Take `COc1cc(O)c2c(c1C)C(=O)O[C@H](CO)CCC(=S)N[C@H](C(=O)NC1CCCC1)CSC2` [Example 14, (4R,9S)-15-hydroxy-9-hydroxymethyl-13-methoxy-12-methyl-11-oxo-6-thioxo-3,4,5,6,7,8,9,11-octahydro-1H-10,2,5-benzoxathiaazacyclotridecine-4-carboxylic acid cyclopentylamide]: the MIC in the test with S. aureus 25923 was found to be 16 µg/mL (≈ 32.2 µM); in the test with S. pyogenes 15, 4 µg/mL (≈ 8.05 µM); with S. faecalis 6, 4 µg/mL (≈ 8.05 µM); with S. aureus Smith it was 8 µg/mL (≈ 16.1 µM); in the test with P. aeruginosa 799/61, 8 µg/mL (≈ 16.1 µM); in the test with E. coli B it was 64 µg/mL (≈ 129 µM). Besides, in the test on S. epidermidis 16-2, the MIC amounted to 1 µg/mL (≈ 2.01 µM). For the same compound, at DNA gyrase, the “maximum non-effective concentration” value worked out at 0.2 µg/mL.

In the case of `COc1cc(O)c2c(c1C)C(=O)O[C@H](CO)CCC(=S)N[C@H](c1nc(C)no1)CSC2` [Example 16, (4R,9S)-15-hydroxy-9-hydroxymethyl-13-methoxy-12-methyl-4-(3-methyl-1,2,4-oxadiazol-5-yl)-6-thioxo-3,4,5,6,7,8,9,11-octahydro-1H-10,2,5-benzoxathiaazacyclotridecine-11-one], on DNA gyrase, the “maximum non-effective concentration” value came out at 0.01 µg/mL.

Take `COC(=O)[C@@H]1CSCc2c(O)cc(OC)c(C)c2C(=O)OCCCCC(=S)N1` [Example 23, (R)-16-hydroxy-14-methoxy-13-methyl-12-oxo-6-thioxo-1,3,4,5,6,7,8,9,10,12-decahydro-11,2,5-benzoxathiaazacyclotetradecine-4-carboxylic acid methyl ester]: the MIC in the test with S. aureus 25923 turned out to be 0.5 µg/mL (≈ 1.17 µM); in the test with S. pyogenes 15, 2 µg/mL (≈ 4.68 µM); in the test with S. faecalis 6, 1 µg/mL (≈ 2.34 µM); in the test on S. aureus Smith, 0.25 µg/mL (≈ 0.585 µM); in the test on P. aeruginosa 799/61 it was 8 µg/mL (≈ 18.7 µM); in the test on E. coli B it was 16 µg/mL (≈ 37.4 µM). For the same compound, the MIC with S. epidermidis 16-2 was determined as 0.12 µg/mL (≈ 0.281 µM). Besides, the “maximum non-effective concentration” value on DNA gyrase amounted to 0.01 µg/mL.

In the case of `CCCNC(=O)[C@@H]1CSCc2c(O)cc(OC)c(C)c2C(=O)OCCCCC(=S)N1` [Example 26, (R)-16-hydroxy-14-methoxy-13-methyl-12-oxo-6-thioxo-1,3,4,5,6,7,8,9,10,12-decahydro-11,2,5-benzoxathiaazacyclotetradecine-4-carboxylic acid propylamide], the MIC was 2 µg/mL (≈ 4.4 µM) in the test on S. aureus 25923; 4 µg/mL (≈ 8.8 µM) in the test on S. pyogenes 15; 2 µg/mL (≈ 4.4 µM) in the test on S. faecalis 6; 0.5 µg/mL (≈ 1.1 µM) in the test with S. aureus Smith; 32 µg/mL (≈ 70.4 µM) in the test with P. aeruginosa 799/61; greater than 64 µg/mL in the test on E. coli B. Besides, the MIC with S. epidermidis 16-2 came out at 0.12 µg/mL (≈ 0.264 µM). The “maximum non-effective concentration” value at DNA gyrase came to 0.04 µg/mL.

As to `C#CCNC(=O)[C@@H]1CSCc2c(O)cc(OC)c(C)c2C(=O)OCCCCC(=S)N1` [Example 27, (R)-16-hydroxy-14-methoxy-13-methyl-12-oxo-6-thioxo-1,3,4,5,6,7,8,9,10,12-decahydro-11,2,5benzoxathiaazacyclotetradecine-4-carboxylic acid prop-2-ynylamide], the MIC in the test with S. aureus 25923 came to 1 µg/mL (≈ 2.22 µM); in the test with S. pyogenes 15, 4 µg/mL (≈ 8.88 µM); in the test with S. faecalis 6 it was 0.5 µg/mL (≈ 1.11 µM); in the test on S. aureus Smith it was 0.5 µg/mL (≈ 1.11 µM); in the test on P. aeruginosa 799/61, 2 µg/mL (≈ 4.44 µM); with E. coli B, 64 µg/mL (≈ 142 µM). The MIC in the test on S. epidermidis 16-2 was determined as 0.12 µg/mL (≈ 0.266 µM). Also, the “maximum non-effective concentration” value on DNA gyrase was 0.01 µg/mL.

For the compound `COC(=O)[C@@H]1CSCc2c(O)cc(OC)c(C)c2C(=O)OC[C@H](O)CCC(=S)N1` [Example 32, (4R,9R)-9,16-dihydroxy-14-methoxy-13-methyl-12-oxo-6-thioxo-1,3,4,5,6,7,8,9,10,12-decahydro-11,2,5-benzoxathiaazacyclotetradecine-4-carboxylic acid methyl ester], the MIC in the test on S. aureus 25923 was 1 µg/mL (≈ 2.25 µM); with S. pyogenes 15, 2 µg/mL (≈ 4.51 µM); in the test on S. faecalis 6, 2 µg/mL (≈ 4.51 µM); with S. aureus Smith it was 0.5 µg/mL (≈ 1.13 µM); in the test on P. aeruginosa 799/61, 4 µg/mL (≈ 9.02 µM); in the test on E. coli B, greater than 64 µg/mL. In addition, the MIC in the test on S. epidermidis 16-2 stood at 0.25 µg/mL (≈ 0.564 µM). Also, the “maximum non-effective concentration” value at DNA gyrase stood at 0.01 µg/mL.

`COc1cc(O)c2c(c1C)C(=O)OCCCCC(=O)N[C@H](c1nc(C)no1)CSC2` [Example 33, (R)-16-hydroxy-14-methoxy-13-methyl-4-(3-methyl-1,2,4-oxadiazol-5-yl)-1,3,4,5,6,7,8,9,10,12-decahydro-11,2,5-benzoxathiaazacyclotetradecine-6,12-dione]: the MIC was found to be 0.5 µg/mL (≈ 1.15 µM) in the test with S. aureus 25923; 1 µg/mL (≈ 2.3 µM) in the test with S. pyogenes 15; 0.5 µg/mL (≈ 1.15 µM) with S. faecalis 6; 0.25 µg/mL (≈ 0.574 µM) in the test with S. aureus Smith; 4 µg/mL (≈ 9.18 µM) in the test on P. aeruginosa 799/61; 32 µg/mL (≈ 73.5 µM) in the test on E. coli B. For the same compound, in the test on S. epidermidis 16-2, the MIC worked out at 0.25 µg/mL (≈ 0.574 µM). The “maximum non-effective concentration” value on DNA gyrase amounted to 0.01 µg/mL.

`COc1cc(O)c2c(c1C)C(=O)OCCCCC(=O)N[C@H](c1nc(C)no1)C[S@@+]([O-])C2` [Example 111, (2S,4R)-16-hydroxy-14-methoxy-13-methyl-4-(3-methyl-1,2,4-oxadiazol-5-yl)-2-oxo-1,3,4,5,6,7,8,9,10,12-benzoxathiaazacyclotetradecin-6,12-dione]: the “maximum non-effective concentration” value on DNA gyrase was 0.1 µg/mL.

On to `COc1cc(O)c2c(c1C)C(=O)OCCCCC(=S)N[C@H](c1nc(CN)no1)CSC2.Cl` [Example 130, (R)-4-(3-aminomethyl-1,2,4-oxadiazol-5-yl)-16-hydroxy-14-methoxy-13-methyl-6-thioxo-1,3,4,5,6,7,8,9,10,12-decahydro-11,2,5-benzoxathiaazacyclotetradecin-12-one hydrochloride], for which the MIC with S. aureus 25923 came to 0.5 µg/mL; in the test with S. pyogenes 15 it was 0.5 µg/mL; in the test with S. faecalis 6, 0.5 µg/mL; in the test on S. aureus Smith it was 0.25 µg/mL; in the test with P. aeruginosa 799/61, 64 µg/mL; with E. coli B, 32 µg/mL. In addition, the MIC in the test with S. epidermidis 16-2 amounted to 0.12 µg/mL.

`COc1cc(O)c2c(c1C)C(=O)OCCCCC(=O)N[C@H](c1nc(CNC(C)C)no1)CSC2` [Example 132, (R)-16-hydroxy-4-[3-(isopropylamino)-methyl-1,2,4-oxadiazol-5-yl]-14-methoxy-13-methyl-1,3,4,5,6,7,8,9,10,12-decahydro-11,2,5-benzoxathiaazacyclotetradecin-6,12-dione hydrochloride]: the MIC in the test with S. aureus 25923 is 4 µg/mL; in the test with S. pyogenes 15 it was 4 µg/mL; in the test on S. faecalis 6 it was 4 µg/mL; in the test with S. aureus Smith it was 2 µg/mL; with P. aeruginosa 799/61, greater than 64 µg/mL; with E. coli B, 64 µg/mL. Moreover, the MIC in the test on S. epidermidis 16-2 turned out to be 0.5 µg/mL.

Turning to `COc1cc(O)c2c(c1C)C(=O)OCCCCC(=S)N[C@H](c1nc(CNC(C)=O)no1)CSC2` [Example 142, (R)-N-[5-(16-hydroxy-14-methoxy-13-methyl-12-oxo-6-thioxo-1,3,4,5,6,7,8,9,10,12-decahydro-11,2,5-benzoxathiaazacyclotetradecin-4-yl)-1,2,4-oxadiazol-3-ylmethyl]-acetamide], the MIC in the test with S. aureus 25923 was 2 µg/mL (≈ 3.93 µM); in the test with S. pyogenes 15, 1 µg/mL (≈ 1.97 µM); in the test with S. faecalis 6, 1 µg/mL (≈ 1.97 µM); in the test on S. aureus Smith, 1 µg/mL (≈ 1.97 µM); in the test on P. aeruginosa 799/61, greater than 64 µg/mL; in the test with E. coli B, 64 µg/mL (≈ 126 µM). Moreover, in the test with S. epidermidis 16-2, the MIC came to 0.12 µg/mL (≈ 0.236 µM).

With `COC(=O)c1c(Br)c(OC)cc(O)c1CSC[C@H](Nc1nc(-c2ccc(C(=O)O)cc2)cs1)c1nc(C)no1` [Example 171], the MIC in the test with S. aureus 25923 is 8 µg/mL (≈ 12.6 µM); with S. pyogenes 15, 2 µg/mL (≈ 3.15 µM); with S. faecalis 6, 4 µg/mL (≈ 6.29 µM); with S. aureus Smith, 4 µg/mL (≈ 6.29 µM); with P. aeruginosa 799/61, greater than 64 µg/mL; with E. coli B it was greater than 64 µg/mL. The MIC in the test on S. epidermidis 16-2 turned out to be 1 µg/mL (≈ 1.57 µM).

In the case of `COC(=O)c1c(C)c(OC)cc(O)c1CSC[C@H](Nc1nc(-c2ccccc2)ns1)c1nc(C)no1` [Example 175, (R)-3-hydroxy-5-methoxy-6-methyl-2-[2-(3-methyl-1,2,4-oxadiazol-5-yl)-2-(3-phenyl-1,2,4-thiadiazol-5-ylamino)-ethylsulfanylmethyl]-benzoic acid methyl ester], the MIC with S. aureus 25923 is 4 µg/mL (≈ 7.58 µM); with S. pyogenes 15, 4 µg/mL (≈ 7.58 µM); in the test with S. faecalis 6, 4 µg/mL (≈ 7.58 µM); with S. aureus Smith, 1 µg/mL (≈ 1.9 µM); in the test with P. aeruginosa 799/61 it was greater than 64 µg/mL; with E. coli B, greater than 64 µg/mL. In addition, the MIC in the test with S. epidermidis 16-2 is 1 µg/mL (≈ 1.9 µM).
